Source: patent publication US11911411B2, “Sulfated glycosaminoglycan biomaterials as proteoglycan mimics” (Glycologix, LLC, priority 2020, dated 2024)

Tested on: bladder permeability in LPS-treated URO-MCP-1 mice
Assay: CE-MRI (Gd-DTPA) assessment of bladder permeability, LPS-treated URO-MCP-1 transgenic mouse model of IC/BPS
Type: in vivo
Details: 20 mg/ml, 100 μl
Description: The URO-MCP-1 transgenic model was described previously. Cystitis with accompanying permeability were induced by intravesical administration of LPS at a sub-noxious dose of 1 jig of LPS in 100 μl of saline (Day 0, 9 a.m.). One control group was administered saline (100 μl) only (saline URO-MCP-1). Another control group consisting of wild-type (WT) mice was also administered saline only (saline-WT). Bladders were flushed 3 times with saline to remove any excess LPS 1 hour post-LPS injection. The next day (Day 1, 9 am) animals were treated with CS or SuperGAG (20 mg/ml in saline; 100 μl) or saline and the initial permeability was assessed 3 hours later (Day 1, 12:00 p.m.).
For MRI assessment of permeability, mice were anesthetized and treated as described above, but instead of euthanizing the mice, on Day 1, Day 3, and Day 5 the mice were anesthetized, instilled with the contrast agent Gd-DTPA and placed into the MRI instrument. MRI experiments were conducted on a 7 Tesla 30 cm-bore Bruker Biospec MRI system (Bruker Biospin Corporation, Woodlands, TX, U.S.A.). MRI scans were obtained at 1-, 3-, and 5-days following LPS instillation. For the bladder images, Gd-DTPA (0.034 mM Gd-DTPA diluted to 100 μl in saline), was administered via an intravesical catheter, for visualization of loss of permeability of the bladder urothelium. Bladder CE-MRI signal intensity changes were determined 7 minutes. post-contrast. For all MR images, a T1-weighted RARE (rapid acquisition with relaxation enhancement) MRI pulse sequence was used with the following parameters: repetition time (TR) of 1200 ms, echo time (TE) of 9 ms, a RARE factor of 4, 4 averages, an image slice thickness of 1 mm, a matrix of 256×256, a field-of-view (FOV) of 3.5×3.5 cm2, and with both motion and fat suppression. Animals were euthanized and the bladders placed in formalin for histopathology.

## chondroitin sulfate [CS]
Day 1, *p< (figure not given)
  percent change in MRI signal intensity versus LPS-treated URO-MCP-1 mice, day 1: significant decrease
Day 3, ***p<0.0001 for both
  percent change in MRI signal intensity versus LPS-treated URO-MCP-1 mice, day 3: significant decrease
Day 5, **p<0.01 for SuperGAG
  percent change in MRI signal intensity versus LPS-treated URO-MCP-1 mice, day 5: not significantly different to control
